The results in this text go back to patent US20240059671A1, “TYROSINE KINASE 2 (TYK2) DEGRADATION COMPOUNDS AND METHODS OF USE” (CULLGEN (SHANGHAI), INC., priority 2020, published 2024).

This assay concerns the target TYK2 (Homo sapiens, UniProt P29597). In words: TYK2 protein degradation in MOLT-4 cells by immunoblotting. It is filed as cell-based. Set-up: endogenous in cells; host or cells: MOLT-4. As to conditions: MOLT-4 cells, 24 hours. In short, it runs like this: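 Percent TYK2 degradation came from densitometry of chemiluminescent immunoblots of RIPA lysates. Before lysis, MOLT-4 cells had been treated for 24 h with each compound at 0.5 or 5 μM.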

TYK2, sequence (P29597 whole entry): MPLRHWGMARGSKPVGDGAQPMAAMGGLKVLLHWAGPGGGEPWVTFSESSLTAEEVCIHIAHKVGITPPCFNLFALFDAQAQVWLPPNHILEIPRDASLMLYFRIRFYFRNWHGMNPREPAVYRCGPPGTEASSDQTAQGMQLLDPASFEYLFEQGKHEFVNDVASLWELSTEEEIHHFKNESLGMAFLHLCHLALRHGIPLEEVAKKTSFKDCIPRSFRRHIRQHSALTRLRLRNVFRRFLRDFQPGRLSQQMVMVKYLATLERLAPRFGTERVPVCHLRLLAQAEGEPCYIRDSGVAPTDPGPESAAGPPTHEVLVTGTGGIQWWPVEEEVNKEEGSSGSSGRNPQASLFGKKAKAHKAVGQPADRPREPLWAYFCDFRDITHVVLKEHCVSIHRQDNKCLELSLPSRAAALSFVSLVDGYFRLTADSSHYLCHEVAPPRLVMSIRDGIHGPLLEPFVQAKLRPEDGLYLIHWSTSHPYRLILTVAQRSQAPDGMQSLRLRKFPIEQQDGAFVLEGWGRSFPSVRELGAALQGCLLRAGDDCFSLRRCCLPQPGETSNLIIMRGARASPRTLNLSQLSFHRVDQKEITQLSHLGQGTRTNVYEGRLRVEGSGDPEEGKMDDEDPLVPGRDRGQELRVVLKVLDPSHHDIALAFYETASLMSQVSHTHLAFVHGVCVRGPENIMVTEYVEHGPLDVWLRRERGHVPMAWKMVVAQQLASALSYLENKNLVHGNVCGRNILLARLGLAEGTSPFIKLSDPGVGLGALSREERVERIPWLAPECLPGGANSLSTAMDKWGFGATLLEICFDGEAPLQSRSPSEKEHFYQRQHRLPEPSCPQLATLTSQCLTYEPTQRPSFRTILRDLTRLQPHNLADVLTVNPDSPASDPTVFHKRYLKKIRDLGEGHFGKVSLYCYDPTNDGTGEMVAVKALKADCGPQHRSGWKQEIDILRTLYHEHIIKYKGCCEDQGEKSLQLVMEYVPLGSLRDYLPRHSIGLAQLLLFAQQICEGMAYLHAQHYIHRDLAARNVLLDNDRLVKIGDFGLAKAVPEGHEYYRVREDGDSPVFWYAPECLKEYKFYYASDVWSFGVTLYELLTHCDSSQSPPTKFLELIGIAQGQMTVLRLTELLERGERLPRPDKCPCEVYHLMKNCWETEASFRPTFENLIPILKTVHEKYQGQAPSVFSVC

For the molecule `CNC(=O)c1nnc(NC(=O)CNC(=O)CCOCCOCCOCCOCCOCCNc2ccc3c(c2)C(=O)N(C2CCC(=O)NC2=O)C3=O)cc1Nc1cccc(-c2ncn(C)n2)c1OC` (stereo not shown) [CPD-065, 6-(1-((2-(2,6-Dioxopiperidin-3-yl)-1,3-dioxoisoindolin-5-yl)amino)-18-oxo-3,6,9,12,15-pentaoxa-19-azahenicosan-21-amido)-4-((2-methoxy-3-(1-methyl-1H-1,2,4-triazol-3-yl)phenyl)amino)-N-methylpyridazine-3-carboxamide], the “TYK2 Degradation (0.5 μM)” value is at most 20% and the “TYK2 Degradation (5 μM)” value is at most 20%.

For `CNC(=O)c1nnc(NC(=O)C2CC2)cc1Nc1cccc(-c2ncn(CCNC(=O)COCC(=O)N[C@H](C(=O)N3C[C@H](O)C[C@H]3C(=O)NCc3ccc(-c4scnc4C)cc3)C(C)(C)C)n2)c1OC` [CPD-066, 6-(Cyclopropanecarboxamido)-4-((3-(1-(2-(2-(2-(((S)-1-((2S,4R)-4-hydroxy-2-((4-(4-methylthiazol-5-yl)benzyl)carbamoyl)pyrrolidin-1-yl)-3,3-dimethyl-1-oxobutan-2-yl)amino)-2-oxoethoxy)acetamido)ethyl)-1H-1,2,4-triazol-3-yl)-2-methoxyphenyl)amino)-N-methylpyridazine-3-carboxamide], the “TYK2 Degradation (0.5 μM)” value was at most 20% and the “TYK2 Degradation (5 μM)” value is given as at most 20%.

`CNC(=O)c1nnc(NC(=O)C2CC2)cc1Nc1cccc(-c2ncn(CCNC(=O)CCCCCNc3ccc4c(c3)C(=O)N(C3CCC(=O)NC3=O)C4=O)n2)c1OC` (stereo not shown) [CPD-023, 6-(Cyclopropanecarboxamido)-4-((3-(1-(2-(6-((2-(2,6-dioxopiperidin-3-yl)-1,3-dioxoisoindolin-5-yl)amino)hexanamido)ethyl)-1H-1,2,4-triazol-3-yl)-2-methoxyphenyl)amino)-N-methylpyridazine-3-carboxamide]: the “TYK2 Degradation (0.5 μM)” value is at most 20% and the “TYK2 Degradation (5 μM)” value was at most 20%.

As for `CNC(=O)c1nnc(NC(=O)CNC(=O)COc2cc(-c3scnc3C)ccc2CNC(=O)[C@@H]2C[C@@H](O)CN2C(=O)[C@@H](NC(=O)C2(F)CC2)C(C)(C)C)cc1Nc1cccc(-c2ncn(C)n2)c1OC` [CPD-101, 6-(2-(2-(2-(((2S,4R)-1-((S)-2-(1-Fluorocyclopropane-1-carboxamido)-3,3-dimethylbutanoyl)-4-hydroxypyrrolidine-2-carboxamido)methyl)-5-(4-methylthiazol-5-yl)phenoxy)acetamido)acetamido)-4-((2-methoxy-3-(1-methyl-1H-1,2,4-triazol-3-yl)phenyl)amino)-N-methylpyridazine-3-carboxamide], the “TYK2 Degradation (MOLT-4, 0.5 μM)” value is “C (C: ≤20% TYK2 degradation)” and the “TYK2 Degradation (MOLT-4, 5 μM)” value is recorded as “C (C: ≤20% TYK2 degradation)”.

For `CNC(=O)c1nnc(NC(=O)C2CC2)cc1Nc1cccc(-c2ncn(CCNC(=O)COCCOCCOCCOCCOCC(=O)N[C@H](C(=O)N3C[C@H](O)C[C@H]3C(=O)NCc3ccc(-c4scnc4C)cc3)C(C)(C)C)n2)c1OC` [CPD-073, N^1-(2-(3-(3-((6-(Cyclopropanecarboxamido)-3-(methylcarbamoyl)pyridazin-4-yl)amino)-2-methoxyphenyl)-1H-1,2,4-triazol-1-yl)ethyl)-N^17-((S)-1-((2S,4R)-4-hydroxy-2-((4-(4-methylthiazol-5-yl)benzyl)carbamoyl)pyrrolidin-1-yl)-3,3-dimethyl-1-oxobutan-2-yl)-3,6,9,12,15-pentaoxaheptadecanediamide], the “TYK2 Degradation (0.5 μM)” value is listed as at most 20% and the “TYK2 Degradation (5 μM)” value is at most 20%.

With `CNC(=O)c1nnc(NC(=O)CNC(=O)CCOCCOCCOCCNc2ccc3c(c2)C(=O)N(C2CCC(=O)NC2=O)C3=O)cc1Nc1cccc(-c2ncn(C)n2)c1OC` (stereo not shown) [CPD-063, 6-(1-((2-(2,6-Dioxopiperidin-3-yl)-1,3-dioxoisoindolin-5-yl)amino)-12-oxo-3,6,9-trioxa-13-azapentadecan-15-amido)-4-((2-methoxy-3-(1-methyl-1H-1,2,4-triazol-3-yl)phenyl)amino)-N-methylpyridazine-3-carboxamide], the “TYK2 Degradation (0.5 μM)” value was at most 20% and the “TYK2 Degradation (5 μM)” value worked out at 30%.

As for `CNC(=O)c1nnc(NC(=O)C2CC2)cc1Nc1cccc(-c2ncn(CCNC(=O)CCOCCOCCOCCOCCOCCC(=O)N[C@H](C(=O)N3C[C@H](O)C[C@H]3C(=O)NCc3ccc(-c4scnc4C)cc3)C(C)(C)C)n2)c1OC` [CPD-074, N^1-(2-(3-(3-((6-(Cyclopropanecarboxamido)-3-(methylcarbamoyl)pyridazin-4-yl)amino)-2-methoxyphenyl)-1H-1,2,4-triazol-1-yl)ethyl)-N^19-((S)-1-((2S,4R)-4-hydroxy-2-((4-(4-methylthiazol-5-yl)benzyl)carbamoyl)pyrrolidin-1-yl)-3,3-dimethyl-1-oxobutan-2-yl)-4,7,10,13,16-pentaoxanonadecanediamide], the “TYK2 Degradation (0.5 μM)” value was at most 20% and the “TYK2 Degradation (5 μM)” value is at most 20%.

For the molecule `CNC(=O)c1nnc(NC(=O)CNC(=O)CCCCCC(=O)N[C@H](C(=O)N2C[C@H](O)C[C@H]2C(=O)NCc2ccc(-c3scnc3C)cc2)C(C)(C)C)cc1Nc1cccc(-c2ncn(C)n2)c1OC` [CPD-037, N^1—((S)-1-((2S,4R)-4-Hydroxy-2-((4-(4-methylthiazol-5-yl)benzyl)carbamoyl)pyrrolidin-1-yl)-3,3-dimethyl-1-oxobutan-2-yl)-N^7-(2-((5-((2-methoxy-3-(1-methyl-1H-1,2,4-triazol-3-yl)phenyl)amino)-6-(methylcarbamoyl)pyridazin-3-yl)amino)-2-oxoethyl)heptanediamide], the “TYK2 Degradation (0.5 μM)” value is at most 20% and the “TYK2 Degradation (5 μM)” value was 30%.

Consider `CNC(=O)c1nnc(NC(=O)CNC(=O)CCCCCCCCCOc2cc(-c3scnc3C)ccc2CNC(=O)[C@@H]2C[C@@H](O)CN2C(=O)[C@@H](NC(=O)C2(F)CC2)C(C)(C)C)cc1Nc1cccc(-c2ncn(C)n2)c1OC` [CPD-109, 6-(2-(10-(2-(((2S,4R)-1-((S)-2-(1-Fluorocyclopropane-1-carboxamido)-3,3-dimethylbutanoyl)-4-hydroxypyrrolidine-2-carboxamido)methyl)-5-(4-methylthiazol-5-yl)phenoxy)decanamido)acetamido)-4-((2-methoxy-3-(1-methyl-JH-1,2,4-triazol-3-yl)phenyl)amino)-N-methylpyridazine-3-carboxamide], for which the “TYK2 Degradation (MOLT-4, 0.5 μM)” value was “B (B: <60% TYK2 degradation, and >20% TYK2 degradation)”; the “TYK2 Degradation (MOLT-4, 5 μM)” value is recorded as “A (A: ≥60% TYK2 degradation)”.

Turning to `CNC(=O)c1nnc(NC(=O)CNC(=O)CCNc2cccc3c2C(=O)N(C2CCC(=O)NC2=O)C3=O)cc1Nc1cccc(-c2ncn(C)n2)c1OC` (stereo not shown) [CPD-043, 6-(2-(3-((2-(2,6-Dioxopiperidin-3-yl)-1,3-dioxoisoindolin-4-yl)amino)propanamido)acetamido)-4-((2-methoxy-3-(1-methyl-1H-1,2,4-triazol-3-yl)phenyl)amino)-N-methylpyridazine-3-carboxamide], the “TYK2 Degradation (0.5 μM)” value is recorded as at most 20% and the “TYK2 Degradation (5 μM)” value was at most 20%.

For `CNC(=O)c1nnc(NC(=O)CNC(=O)CCCCCCNc2cccc3c2C(=O)N(C2CCC(=O)NC2=O)C3=O)cc1Nc1cccc(-c2ncn(C)n2)c1OC` (stereo not shown) [CPD-047, 6-(2-(7-((2-(2,6-dioxopiperidin-3-yl)-1,3-dioxoisoindolin-4-yl)amino)heptanamido)acetamido)-4-((2-methoxy-3-(1-methyl-H-1,2,4-triazol-3-yl)phenyl)amino)-N-methylpyridazine-3-carboxamide], the “TYK2 Degradation (0.5 μM)” value came out at 60% and the “TYK2 Degradation (5 μM)” value is on record as at most 20%.

As for `CNC(=O)c1nnc(NC(=O)C2CC2)cc1Nc1cccc(-c2ncn(CCNC(=O)CCCCCCCCCC(=O)N[C@H](C(=O)N3C[C@H](O)C[C@H]3C(=O)NCc3ccc(-c4scnc4C)cc3)C(C)(C)C)n2)c1OC` [CPD-082, N^1-(2-(3-(3-((6-(Cyclopropanecarboxamido)-3-(methylcarbamoyl)pyridazin-4-yl)amino)-2-methoxyphenyl)-1H-1,2,4-triazol-1-yl)ethyl)-N^11-((S)-1-((2S,4R)-4-hydroxy-2-((4-(4-methylthiazol-5-yl)benzyl)carbamoyl)pyrrolidin-1-yl)-3,3-dimethyl-1-oxobutan-2-yl)undecanediamide], the “TYK2 Degradation (MOLT-4, 0.5 μM)” value is given as “C (C: ≤20% TYK2 degradation)” and the “TYK2 Degradation (MOLT-4, 5 μM)” value is recorded as “C (C: ≤20% TYK2 degradation)”.

Take `CNC(=O)c1nnc(Nc2ccc(N3CCN(C(=O)CCCCCC(=O)N[C@H](C(=O)N4C[C@H](O)C[C@H]4C(=O)NCc4ccc(-c5scnc5C)cc4)C(C)(C)C)CC3)cn2)cc1Nc1cccc(-c2ncn(C)n2)c1OC` [CPD-099, 6-((5-(4-(7-(((S)-1-((2S,4R)-4-hydroxy-2-((4-(4-methylthiazol-5-yl)benzyl)carbamoyl)pyrrolidin-1-yl)-3,3-dimethyl-1-oxobutan-2-yl)amino)-7-oxoheptanoyl)piperazin-1-yl)pyridin-2-yl)amino)-4-((2-methoxy-3-(1-methyl-JH-1,2,4-triazol-3-yl)phenyl)amino)-N-methylpyridazine-3-carboxamide]: the “TYK2 Degradation (MOLT-4, 0.5 μM)” value is on record as “A (A: ≥60% TYK2 degradation)”; the “TYK2 Degradation (MOLT-4, 5 μM)” value was “B (B: <60% TYK2 degradation, and >20% TYK2 degradation)”.

For `CNC(=O)c1nnc(NC(=O)C2CC2)cc1Nc1cccc(-c2ncn(CCNC(=O)COCCOCC(=O)N[C@H](C(=O)N3C[C@H](O)C[C@H]3C(=O)NCc3ccc(-c4scnc4C)cc3)C(C)(C)C)n2)c1OC` [CPD-068, 6-(Cyclopropanecarboxamido)-4-((3-(1-((S)-13-((2S,4R)-4-hydroxy-2-((4-(4-methylthiazol-5-yl)benzyl)carbamoyl)pyrrolidine-1-carbonyl)-14,14-dimethyl-4,11-dioxo-6,9-dioxa-3,12-diazapentadecyl)-1H-1,2,4-triazol-3-yl)-2-methoxyphenyl)amino)-N-methylpyridazine-3-carboxamide], the “TYK2 Degradation (0.5 μM)” value is at most 20% and the “TYK2 Degradation (5 μM)” value is recorded as at most 20%.
